ChEMBL document CHEMBL3885861, “Open TG-GATES”

Species: Rattus norvegicus
Assay: Open TG-GATES - Regimen: Single
Type: toxicity, organism-based, Sprague-Dawley
Parameters: regimen Single, gender Male, age 6 weeks
Settings: in vivo, po, 30 mg/kg, route gavage, dose level Low; for APTT / Bas / Eos / Fbg / Hb / Ht / Lym / MCHC / MCV / Mono / Neu / PT / Plat / RBC / Ret / WBC: tissue Blood; for KIDNEY_L / KIDNEY_R / KIDNEY_TOTAL: tissue Kidney; for LIVER: tissue Liver; for ALP / ALT / AST / BUN / CRE / Ca / Cl / DBIL / GLC / IP / K / LDH / Na / PL / RALB / TBIL / TC / TG / TP / gamma-GTP: tissue Plasma

## CS(=O)(=O)Nc1ccc([N+](=O)[O-])cc1Oc1ccccc1 [NIMESULIDE]
3 h
  TERMINAL_BW: 200.4 g
  APTT: 16.6 s
  Bas: 0%
  Eos: 1%
  Fbg: 231 mg/dL
  Hb: 13.1 g/dL
  Ht: 39.1%
  Lym: 80.8%
  MCHC: 33.6%
  MCV: 63.4 fL
  Mono: 5%
  Neu: 13.4%
  PT: 12.5 s
  Plat: 127.7 x10_4/uL
  RBC: 616.4 x10_4/ul
  Ret: 11.7%
  WBC: 116.6 x10_2/uL
  KIDNEY_L: 0.9 g
  KIDNEY_R: 0.9 g
  KIDNEY_TOTAL: 1.8 g
  LIVER: 9 g
  ALP: 803 IU/L
  ALT: 39.6 IU/L
  AST: 69.8 IU/L
  BUN: 16.6 mg/dL
  CRE: 0.6 mg/dL
  Ca: 10.9 mg/dL
  Cl: 107.6 meq/L
  DBIL: 0.064 mg/dL
  GLC: 208.4 mg/dL
  IP: 9.2 mg/dL
  K: 5 meq/L
  LDH: 106 IU/L
  Na: 141.2 meq/L
  PL: 134.4 mg/dL
  RALB: 3.7 g/dL
  TBIL: 0.3 mg/dL
  TC: 78.2 mg/dL
  TG: 47.8 mg/dL
  TP: 5.2 g/dL
  gamma-GTP: 1.6 IU/L
6 h
  TERMINAL_BW: 196.1 g
  APTT: 17.4 s
  Bas: 0%
  Eos: 1%
  Fbg: 201.6 mg/dL
  Hb: 13.7 g/dL
  Ht: 40.5%
  Lym: 74.6%
  MCHC: 33.8%
  MCV: 65.6 fL
  Mono: 9.2%
  Neu: 15%
  PT: 12.6 s
  Plat: 111.4 x10_4/uL
  RBC: 618 x10_4/ul
  Ret: 10.6%
  WBC: 84.5 x10_2/uL
  KIDNEY_L: 0.9 g
  KIDNEY_R: 0.9 g
  KIDNEY_TOTAL: 1.8 g
  LIVER: 8.3 g
  ALP: 790 IU/L
  ALT: 33 IU/L
  AST: 62.2 IU/L
  BUN: 13.8 mg/dL
  CRE: 0.6 mg/dL
  Ca: 10.7 mg/dL
  Cl: 106.6 meq/L
  DBIL: 0.054 mg/dL
  GLC: 200 mg/dL
  IP: 10.2 mg/dL
  K: 5 meq/L
  LDH: 86.8 IU/L
  Na: 139.8 meq/L
  PL: 119.6 mg/dL
  RALB: 3.7 g/dL
  TBIL: 0.4 mg/dL
  TC: 68 mg/dL
  TG: 56.6 mg/dL
  TP: 5.2 g/dL
  gamma-GTP: 1.2 IU/L
9 h
  TERMINAL_BW: 200.7 g
  APTT: 16.7 s
  Bas: 0%
  Eos: 0.6%
  Fbg: 207.8 mg/dL
  Hb: 13.2 g/dL
  Ht: 39.5%
  Lym: 81.4%
  MCHC: 33.5%
  MCV: 66.3 fL
  Mono: 8.2%
  Neu: 10%
  PT: 12.3 s
  Plat: 111.8 x10_4/uL
  RBC: 596.2 x10_4/ul
  Ret: 11%
  WBC: 78.5 x10_2/uL
  KIDNEY_L: 1 g
  KIDNEY_R: 1 g
  KIDNEY_TOTAL: 1.9 g
  LIVER: 8.4 g
  ALP: 888.4 IU/L
  ALT: 30.8 IU/L
  AST: 61 IU/L
  BUN: 15 mg/dL
  CRE: 0.5 mg/dL
  Ca: 10.6 mg/dL
  Cl: 108 meq/L
  DBIL: 0.014 mg/dL
  GLC: 201 mg/dL
  IP: 10.2 mg/dL
  K: 4.9 meq/L
  LDH: 99 IU/L
  Na: 139.4 meq/L
  PL: 135.8 mg/dL
  RALB: 3.9 g/dL
  TBIL: 0.4 mg/dL
  TC: 78.2 mg/dL
  TG: 41 mg/dL
  TP: 5.3 g/dL
  gamma-GTP: 1.4 IU/L
24 h
  TERMINAL_BW: 212.5 g
  APTT: 17.2 s
  Bas: 0%
  Eos: 1.2%
  Fbg: 199.2 mg/dL
  Hb: 13.6 g/dL
  Ht: 40.7%
  Lym: 71.2%
  MCHC: 33.4%
  MCV: 63.8 fL
  Mono: 8.2%
  Neu: 19.4%
  PT: 11.7 s
  Plat: 109.8 x10_4/uL
  RBC: 638.4 x10_4/ul
  Ret: 10.3%
  WBC: 124.8 x10_2/uL
  KIDNEY_L: 0.9 g
  KIDNEY_R: 1 g
  KIDNEY_TOTAL: 1.9 g
  LIVER: 10.6 g
  ALP: 968.4 IU/L
  ALT: 44 IU/L
  AST: 68.8 IU/L
  BUN: 19.2 mg/dL
  CRE: 0.6 mg/dL
  Ca: 10.8 mg/dL
  Cl: 106 meq/L
  DBIL: 0.012 mg/dL
  GLC: 190.6 mg/dL
  IP: 7.6 mg/dL
  K: 4.9 meq/L
  LDH: 99.2 IU/L
  Na: 140.2 meq/L
  PL: 151.6 mg/dL
  RALB: 4 g/dL
  TBIL: 0.3 mg/dL
  TC: 81 mg/dL
  TG: 90 mg/dL
  TP: 5.5 g/dL
  gamma-GTP: 2 IU/L
